This note sets out measurements from PubChem BioAssay (NCI).

Test systems include ACHN renal; BT-549 breast; CAKI-1 renal; COLO 205 colon; HCT-116 colon; NCI-H460 lung; NCI-H522 lung; SF-295 CNS; SF-539 CNS; SW-620 colon.
Common to all, as to test: DTP human tumour cell line panel, 48 h

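Grown in 96-well plates, cells were treated for 48 hours with each compound at five concentrations. Insufficient inhibition: endpoint recorded as highest concentration tested. GI50 = concentration required for 50% inhibition of growth. Definition used: TGI = concentration required for complete inhibition of growth.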

As to `COc1c(C(N)=O)cc(-c2ccc(Cl)cc2)cc1-c1ccc(S(N)(=O)=O)cc1`, the GI50 with ACHN renal was 10.1 µM; with BT-549 breast, 10.5 µM; in the assay on CAKI-1 renal, 10.9 µM; with COLO 205 colon, > 17.6 µM; with HCT-116 colon it was 12.4 µM; in the assay with NCI-H460 lung, 11.5 µM. The GI50 is 8.11 µM in the assay with NCI-H522 lung, 11.2 µM in the assay on SF-295 CNS, 14.2 µM with SF-539 CNS and 12 µM in the assay on SW-620 colon. In addition, the TGI in the assay with ACHN renal, in the assay on BT-549 breast, in the assay on CAKI-1 renal, with COLO 205 colon, in the assay with HCT-116 colon and in the assay with NCI-H460 lung was > 25 µM in each case. For the same compound, the TGI with NCI-H522 lung is > 20.8 µM; in the assay on SF-295 CNS it was > 25 µM; in the assay on SF-539 CNS, > 25 µM; in the assay on SW-620 colon, > 25 µM.
On to `OC(c1cc(C(F)(F)F)nc2c(Cl)cc(Cl)cc12)C1CCCCN1` (stereo not given), for which the TGI with ACHN renal was > 43.7 µM; with BT-549 breast, 28.2 µM; in the assay on CAKI-1 renal, 21.2 µM; in the assay with COLO 205 colon it was 9.29 µM; in the assay on HCT-116 colon it was > 35.9 µM; with NCI-H460 lung it was > 26.7 µM. The TGI in the assay with NCI-H522 lung is > 21 µM; in the assay on SF-295 CNS it was 25.4 µM; in the assay with SF-539 CNS, 29.9 µM; in the assay with SW-620 colon, 19.2 µM.
For the compound `Cc1ccc(NC(=O)COc2ccc(Cl)cc2)cc1Cl`, the concentration for total growth inhibition (TGI) in the assay with ACHN renal is > 100 µM; in the assay with BT-549 breast, > 100 µM; with CAKI-1 renal it was 81.9 µM; in the assay with COLO 205 colon, > 100 µM; with HCT-116 colon, > 100 µM; in the assay on NCI-H460 lung it was > 100 µM. Moreover, the TGI with NCI-H522 lung, in the assay with SF-295 CNS, in the assay on SF-539 CNS and in the assay with SW-620 colon was > 100 µM each time.
Take `O=C1OC(OC/C(Br)=C(\Br)COC2OC(=O)C(Cl)=C2Cl)C(Cl)=C1Cl` (stereo not given): the TGI was found to be 13.7 µM in the assay with ACHN renal; 6.45 µM with BT-549 breast; 5.54 µM with CAKI-1 renal; 4.11 µM with COLO 205 colon; 4.56 µM in the assay on HCT-116 colon; 33.6 µM in the assay on NCI-H460 lung. Moreover, the TGI with NCI-H522 lung is 3.24 µM; with SF-295 CNS, 34.7 µM; with SF-539 CNS, 21.9 µM; with SW-620 colon, 9.9 µM.
In the case of `CC(=O)C(CN1C(=O)c2ccccc2C1=O)C(C)=O`, the TGI in the assay on ACHN renal, in the assay with BT-549 breast, in the assay with CAKI-1 renal, in the assay with COLO 205 colon, in the assay with HCT-116 colon and with NCI-H460 lung was > 100 µM each time. In addition, the TGI in the assay on NCI-H522 lung, with SF-295 CNS, in the assay with SF-539 CNS and with SW-620 colon was > 100 µM throughout.
Turning to `NC1CC(=O)c2c(-c3cccs3)sc(-c3cccs3)c21` (stereo not given), the GI50 is 10 µM in the assay on ACHN renal; 19.5 µM with BT-549 breast; 33.4 µM in the assay on CAKI-1 renal; 21.5 µM in the assay on COLO 205 colon; 15.3 µM with HCT-116 colon; 38.7 µM with NCI-H460 lung. The GI50 with NCI-H522 lung was 22.1 µM; with SF-295 CNS, 85.4 µM; in the assay on SF-539 CNS, 21.3 µM; with SW-620 colon, 9.11 µM. Moreover, the TGI in the assay on ACHN renal was 25.5 µM; with BT-549 breast, 63.8 µM; in the assay on CAKI-1 renal it was > 100 µM; in the assay with COLO 205 colon it was 63.8 µM; with HCT-116 colon it was 29.9 µM; in the assay with NCI-H460 lung it was > 100 µM. For the same compound, the TGI is 87.5 µM with NCI-H522 lung, > 100 µM in the assay with SF-295 CNS, 47.6 µM in the assay on SF-539 CNS and 58 µM with SW-620 colon.
`CCOP(=O)(OCC)/C(=C/n1c(=S)[nH]c2ccccc21)C(=O)OC`: the TGI in the assay on ACHN renal is > 100 µM; in the assay on BT-549 breast, > 100 µM; in the assay on CAKI-1 renal, > 100 µM; with COLO 205 colon, > 100 µM; with HCT-116 colon, > 100 µM; in the assay on NCI-H460 lung, > 31.6 µM. In addition, the TGI with NCI-H522 lung, in the assay with SF-295 CNS, with SF-539 CNS and in the assay on SW-620 colon was > 100 µM in each case.
With `COC(=O)Nc1nc2ccc(C(=O)c3cccc(I)c3)cc2[nH]1`, the GI50 was 0.13 µM with ACHN renal; 0.16 µM with BT-549 breast; 0.0538 µM with CAKI-1 renal; 0.0472 µM with COLO 205 colon; 0.0402 µM in the assay on HCT-116 colon; 0.0407 µM in the assay with NCI-H460 lung. The GI50 in the assay with NCI-H522 lung is 0.0778 µM; in the assay with SF-295 CNS it was 0.0647 µM; with SF-539 CNS, 0.0589 µM; in the assay on SW-620 colon, 0.0394 µM. The TGI is 21.1 µM in the assay with ACHN renal; 6.57 µM in the assay with BT-549 breast; 11.2 µM with CAKI-1 renal; 4.55 µM in the assay on COLO 205 colon; 13.8 µM in the assay with HCT-116 colon; 4.33 µM in the assay with NCI-H460 lung. The TGI in the assay on NCI-H522 lung came to 9.59 µM; in the assay with SF-295 CNS it was 5.94 µM; in the assay on SF-539 CNS, 0.384 µM; with SW-620 colon, 14.9 µM.
`CC1=CC2(C)/C=C(C)/C=C\CC(O)/C=C3/C=CC(=C4C(=O)OC2(CC1C)C4=O)OC3` (stereo not given): the GI50 was 1.32 µM with ACHN renal; 2.11 µM in the assay with BT-549 breast; 1.65 µM with CAKI-1 renal; 1.47 µM in the assay with COLO 205 colon; 0.541 µM in the assay on HCT-116 colon; 3.84 µM in the assay with NCI-H460 lung. Also, the GI50 with NCI-H522 lung was 2.46 µM; with SF-295 CNS, 8.31 µM; in the assay on SF-539 CNS it was 2.49 µM; with SW-620 colon, 0.512 µM. In addition, the TGI came out at 2.67 µM with ACHN renal; 4.79 µM with BT-549 breast; 3.63 µM in the assay on CAKI-1 renal; 3.65 µM with COLO 205 colon; 5.02 µM with HCT-116 colon; 15.7 µM with NCI-H460 lung. Moreover, the TGI worked out at 8.55 µM in the assay with NCI-H522 lung, 32 µM with SF-295 CNS, 6.72 µM with SF-539 CNS and 2.72 µM in the assay on SW-620 colon.
Consider `COc1cc2[nH]c3c(c2cc1OC)CCN[C@@]31CC[C@@]2(CC3c4c(cc(OC)c(O)c42)CCN3C)C[C@@H]1OC` (stereo not given in full), for which the TGI with ACHN renal is > 100 µM; with BT-549 breast it was > 71.3 µM; with CAKI-1 renal, > 79.5 µM; in the assay with COLO 205 colon, 38.4 µM; with HCT-116 colon, > 87.4 µM; in the assay on NCI-H460 lung, > 100 µM. Besides, the TGI in the assay with NCI-H522 lung was 66.7 µM; with SF-295 CNS it was 47.3 µM; in the assay on SF-539 CNS it was 28.4 µM; in the assay on SW-620 colon, > 92.2 µM.

The term GI50 denotes the concentration that inhibits growth by half. Broadly, the TGI is the concentration at which net growth stops. Lower therefore signals more potent growth arrest.
